Data: patent US20030092757A1, “Favorable modulation of health-related quality of life and health-related quality-adjusted time-to-progression of disease in patients with prostate cancer” (priority 2001, published 2003)

Tested on: patients having hormone refractory prostate cancer (HRPCa)
Assay: Health-related quality-adjusted time-to-progression (QATTP) of disease, Kaplan-Meier product limit analysis, randomized placebo-controlled study
Assay type: in vivo, human
Protocol: The health-related QATTP of disease model for this invention expresses progression-free time as an equally preferable amount of time spent in full health. This is achieved by using patient-reported health-related QoL, as measured for the duration of observation or progression-free interval, to weight progression-free time. […] Patients received treatment with 10 mg (N=89) or 2.5 mg (N=95) of atrasentan or placebo (N=104) until experiencing a clinical event indicative of disease progression such as palliative opiate treatment of new bone or visceral pain, palliative radiation treatment of new bone pain, or new tumor growth symptoms requiring intervention or treatment with chemotherapy. Patient-reported health-related QoL data were collected with the EORTC QLQ-30 and the FACT-G and FACT-P, both of which were administered at baseline, at six week intervals and at each patient's final visit. The results from the 10 mg and 2.5 mg treatment groups are reported relative to the placebo group. A patient's transformed domain score and total score from both the EORTC QLQ-30 and FACT were used to weight the time-to-progression outcome data. Transformed domain scores ranged between 0 and 1, so the reported health-related QATTP of disease outcome was never larger than the actual time-to-progression. Each patient's health-related QATTP of disease was computed as the sum of the health-related QoL weights multiplied by the duration for which that patient experienced that health-related QoL. If a patient experienced a clinical event between two health-related QoL assessments, the set of health-related QoL domain scores immediately prior to the event were carried forward to the time of the clinical event. The mean and median health-related QATTP of disease outcomes were then estimated using Kaplan-Meier product limit methodology (Journal of the American Statistical Association, vol. 53, 1958, pp 457-481). The area under a Kaplan-Meier survival curve conveys an estimated mean health-related QATTP of disease. This analysis was applied to both intent-to-treat and per protocol population data. All health-related QATTP of disease comparisons between atrasentan and placebo treatment groups were based on a log-rank test with statistical significance at an α of 0.05. Results of the Kaplan-Meier product limit survival method analysis are reported in TABLE 2 (Intent to Treat) and TABLE 3 (Per Protocol Population). Mean and median health-related QATTP of disease are shown by treatment group. Log-rank tests comparing the differences between treatment groups are also reported.

[1] = EORTC Appetite Loss, 2.5 mg, intent to treat
[2] = EORTC Appetite Loss, 2.5 mg, per protocol
[3] = EORTC Appetite Loss, 10 mg, intent to treat
[4] = EORTC Appetite Loss, 10 mg, per protocol
[5] = EORTC Cognitive Functioning, 2.5 mg, intent to treat
[6] = EORTC Cognitive Functioning, 2.5 mg, per protocol
[7] = EORTC Cognitive Functioning, 10 mg, intent to treat
[8] = EORTC Cognitive Functioning, 10 mg, per protocol
[9] = EORTC Constipation, 2.5 mg, intent to treat
[10] = EORTC Constipation, 2.5 mg, per protocol
[11] = EORTC Constipation, 10 mg, intent to treat
[12] = EORTC Constipation, 10 mg, per protocol
[13] = EORTC Diarrhea, 2.5 mg, intent to treat
[14] = EORTC Diarrhea, 2.5 mg, per protocol
[15] = EORTC Diarrhea, 10 mg, intent to treat
[16] = EORTC Diarrhea, 10 mg, per protocol
[17] = EORTC Dyspnea, 2.5 mg, intent to treat
[18] = EORTC Dyspnea, 2.5 mg, per protocol
[19] = EORTC Dyspnea, 10 mg, intent to treat
[20] = EORTC Dyspnea, 10 mg, per protocol
[21] = EORTC Emotional Functioning, 2.5 mg, intent to treat
[22] = EORTC Emotional Functioning, 2.5 mg, per protocol
[23] = EORTC Emotional Functioning, 10 mg, intent to treat
[24] = EORTC Emotional Functioning, 10 mg, per protocol
[25] = EORTC Fatigue, 2.5 mg, intent to treat
[26] = EORTC Fatigue, 2.5 mg, per protocol
[27] = EORTC Fatigue, 10 mg, intent to treat
[28] = EORTC Fatigue, 10 mg, per protocol
[29] = EORTC Global Score, 2.5 mg, intent to treat
[30] = EORTC Global Score, 2.5 mg, per protocol
[31] = EORTC Global Score, 10 mg, intent to treat
[32] = EORTC Global Score, 10 mg, per protocol
[33] = EORTC Nausea & Vomiting, 2.5 mg, intent to treat
[34] = EORTC Nausea & Vomiting, 2.5 mg, per protocol
[35] = EORTC Nausea & Vomiting, 10 mg, intent to treat
[36] = EORTC Nausea & Vomiting, 10 mg, per protocol
[37] = EORTC Pain, 2.5 mg, intent to treat
[38] = EORTC Pain, 2.5 mg, per protocol
[39] = EORTC Pain, 10 mg, intent to treat
[40] = EORTC Pain, 10 mg, per protocol
[41] = EORTC Physical Functioning, 2.5 mg, intent to treat

Compound: CCCCN(CCCC)C(=O)CN1C[C@H](c2ccc3c(c2)OCO3)[C@@H](C(=O)O)[C@@H]1c1ccc(OC)cc1 [atrasentan, (2R,3R,4S)-2-(4-methoxyphenyl)-4-(1,3-benzodioxol-5-yl)-1-(((N,N-dibutylamino)carbonyl)methyl)pyrrolidine-3-carboxylic acid]
- log rank tests of mean health-related QATTP of disease (2.5 mg, all health-related QoL domains except dyspnea and functional well-being): statistically significant
- mean health-related QATTP of disease (2.5 mg, data in TABLE 2 (so in the source)): longer
- difference in health-related QATTP between the atrasentan treatment groups (10 mg vs 2.5 mg, any health-related QoL domain): no statistical differences
- mean health-related QATTP's of disease (10 mg, data in TABLE 2 (so in the source), all health-related QoL domains except dyspnea, global score, emotional well-being, social well-being, p<0.05): significantly longer
- mean health-related QATTP of disease, trend (10 mg, dyspnea, global score, emotional well-being, social well-being domains, p<0.10): trend favored
- QATTP of Disease Mean [1]: 186 days
- QATTP of Disease Median [1]: 151 days
- QATTP of Disease Mean [2]: 196 days
- QATTP of Disease Median [2]: 162 days
- QATTP of Disease Mean [3]: 175 days
- QATTP of Disease Median [3]: 146 days
- QATTP of Disease Mean [4]: 179 days
- QATTP of Disease Median [4]: 146 days
- QATTP of Disease Mean [5]: 180 days
- QATTP of Disease Median [5]: 151 days
- QATTP of Disease Mean [6]: 190 days
- QATTP of Disease Median [6]: 156 days
- QATTP of Disease Mean [7]: 163 days
- QATTP of Disease Median [7]: 138 days
- QATTP of Disease Mean [8]: 159 days
- QATTP of Disease Median [8]: 144 days
- QATTP of Disease Mean [9]: 180 days
- QATTP of Disease Median [9]: 142 days
- QATTP of Disease Mean [10]: 190 days
- QATTP of Disease Median [10]: 151 days
- QATTP of Disease Mean [11]: 189 days
- QATTP of Disease Median [11]: 132 days
- QATTP of Disease Mean [12]: 198 days
- QATTP of Disease Median [12]: 141 days
- QATTP of Disease Mean [13]: 198 days
- QATTP of Disease Median [13]: 178 days
- QATTP of Disease Mean [14]: 209 days
- QATTP of Disease Median [14]: 184 days
- QATTP of Disease Mean [15]: 185 days
- QATTP of Disease Median [15]: 176 days
- QATTP of Disease Mean [16]: 188 days
- QATTP of Disease Median [16]: 184 days
- QATTP of Disease Mean [17]: 173 days
- QATTP of Disease Median [17]: 141 days
- QATTP of Disease Mean [18]: 180 days
- QATTP of Disease Median [18]: 142 days
- QATTP of Disease Mean [19]: 177 days
- QATTP of Disease Median [19]: 123 days
- QATTP of Disease Mean [20]: 182 days
- QATTP of Disease Median [20]: 132 days
- QATTP of Disease Mean [21]: 177 days
- QATTP of Disease Median [21]: 133 days
- QATTP of Disease Mean [22]: 186 days
- QATTP of Disease Median [22]: 143 days
- QATTP of Disease Mean [23]: 167 days
- QATTP of Disease Median [23]: 125 days
- QATTP of Disease Mean [24]: 169 days
- QATTP of Disease Median [24]: 134 days
- QATTP of Disease Mean [25]: 165 days
- QATTP of Disease Median [25]: 109 days
- QATTP of Disease Mean [26]: 174 days
- QATTP of Disease Median [26]: 127 days
- QATTP of Disease Mean [27]: 153 days
- QATTP of Disease Median [27]: 104 days
- QATTP of Disease Mean [28]: 158 days
- QATTP of Disease Median [28]: 111 days
- QATTP of Disease Mean [29]: 159 days
- QATTP of Disease Median [29]: 104 days
- QATTP of Disease Mean [30]: 167 days
- QATTP of Disease Median [30]: 124 days
- QATTP of Disease Mean [31]: 141 days
- QATTP of Disease Median [31]: 103 days
- QATTP of Disease Mean [32]: 145 days
- QATTP of Disease Median [32]: 106 days
- QATTP of Disease Mean [33]: 195 days
- QATTP of Disease Median [33]: 162 days
- QATTP of Disease Mean [34]: 206 days
- QATTP of Disease Median [34]: 178 days
- QATTP of Disease Mean [35]: 201 days
- QATTP of Disease Median [35]: 156 days
- QATTP of Disease Mean [36]: 207 days
- QATTP of Disease Median [36]: 168 days
- QATTP of Disease Mean [37]: 179 days
- QATTP of Disease Median [37]: 133 days
- QATTP of Disease Mean [38]: 188 days
- QATTP of Disease Median [38]: 142 days
- QATTP of Disease Mean [39]: 172 days
- QATTP of Disease Median [39]: 127 days
- QATTP of Disease Mean [40]: 178 days
- QATTP of Disease Median [40]: 137 days
- QATTP of Disease Mean [41]: 172 days
- QATTP of Disease Median [41]: 118 days
- QATTP of Disease Mean (EORTC Physical Functioning, 2.5 mg, per protocol): 181 days
